Data published in patent US8765749B2, “1,6-disubstituted indole compounds as protein kinase inhibitors” (Korea Institute of Science and Technology, priority 2009, dated 2014).

How the values were obtained:
[1] = target: T1, B-Raf (V600E) (Homo sapiens, UniProt P15056, V600E); assay: Measurement of B-Raf-V600E kinase activity (MEK1 (K97R) phosphorylation, [γ-32P] ATP); type: biochemical; conditions: read-out: B-Raf kinase inhibition activity (% inhibition at 1 μM)
T1 construct: purchased Cell Signaling #7663
Method: (1) Activation of MEK1 (K97R) by B-Raf
Base reaction buffer (20 mM Hepes (pH 7.5), 10 mM MgCl2, 1 mM EGTA, 0.02% Brij35, 0.02 mg/mL BSA, 0.1 mM Na3VO, 2 mM DTT, 1% DMSO) was prepared. B-Raf (V600E) (Cell Signaling #7663) diluted to 30 nM was added at a final concentration of 10 nM, and MEK1 (K97R) (Upstate #14-737) diluted to 3 μM was added at a final concentration of 1 μM. The test compound was prepared at a concentration of 10 mM in dimethylsulfoxide (DMSO) and diluted to various concentrations. The final volume was adjusted to 20 μL and, after completely mixing, the mixture was allowed to react at room temperature for 30 minutes.
(2) Phosphorylation of MEK1 (K97R)
[γ-32P] ATP (100 μCi/container) diluted to 1/10 was added in 10 μL aliquots. After completely mixing, the mixture was allowed to react at room temperature for 2 hours. After placing P81 paper in a scintillation vial, spotting was performed using 30 μL of the reaction mixture. After washing 3 times with 0.75% phosphoric acid for 10 minutes and washing once with acetone for 10 minutes, 5 mL of scintillation cocktail was added to the scintillation vial holding the washed P81 paper. Signals were recorded using a scintillation counter.

[2] = test system: SK-MEL28 cells; assay: Inhibition activity against proliferation of SK-MEL28 melanoma cells (MTT assay); conditions: Homo sapiens, SK-MEL-28, read-out: Inhibition activity against proliferation of SK-MEL28 cells (GI50, μM)
[3] = test system: A375P cells; assay: Inhibition activity against proliferation of A375P melanoma cells (MTT assay); conditions: Homo sapiens, read-out: Inhibition activity against proliferation of A375P cells (GI50, μM)
[4] = test system: A375 melanoma cells; conditions: read-out: proliferation of A375 melanoma cells IC50; cited from earlier work
[5] = cited from earlier work

T1 sequence (P15056 whole entry V600E): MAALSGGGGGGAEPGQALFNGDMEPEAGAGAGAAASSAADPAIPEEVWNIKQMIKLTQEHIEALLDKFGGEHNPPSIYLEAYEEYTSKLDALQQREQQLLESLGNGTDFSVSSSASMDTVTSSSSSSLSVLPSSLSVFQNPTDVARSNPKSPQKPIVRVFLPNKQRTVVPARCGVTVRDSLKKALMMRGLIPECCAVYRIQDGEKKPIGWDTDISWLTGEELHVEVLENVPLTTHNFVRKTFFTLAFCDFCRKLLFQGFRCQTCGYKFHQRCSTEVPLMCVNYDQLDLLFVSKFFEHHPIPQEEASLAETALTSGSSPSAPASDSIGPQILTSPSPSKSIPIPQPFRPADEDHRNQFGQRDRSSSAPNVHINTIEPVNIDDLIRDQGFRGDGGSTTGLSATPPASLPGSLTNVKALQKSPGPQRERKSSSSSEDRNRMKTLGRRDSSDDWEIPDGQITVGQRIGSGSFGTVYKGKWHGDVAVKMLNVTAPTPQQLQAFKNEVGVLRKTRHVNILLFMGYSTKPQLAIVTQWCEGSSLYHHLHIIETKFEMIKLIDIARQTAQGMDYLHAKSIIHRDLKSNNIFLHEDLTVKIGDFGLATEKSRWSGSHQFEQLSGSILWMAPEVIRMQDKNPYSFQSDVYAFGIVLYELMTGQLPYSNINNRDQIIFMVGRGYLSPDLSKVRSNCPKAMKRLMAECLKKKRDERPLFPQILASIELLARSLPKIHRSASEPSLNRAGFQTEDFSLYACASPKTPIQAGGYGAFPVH

## COc1ccccc1NC(=O)Nc1ccc(C)c(-c2ccc3ccn(-c4cc(N)ncn4)c3c2)c1 [Example 21, 1-(3-(1-(6-aminopyrimidin-4-yl)-1H-indol-6-yl)-4-methylphenyl)-3-(2-methoxyphenyl)urea]
[1]
  inhibition at 1 µM: > 50%
[2]
  GI50: < 10 µM
[3]
  GI50: < 10 µM

## CNc1cc(-n2ccc3ccc(-c4cccc(NC(=O)Nc5ccccc5OC)c4)cc32)ncn1 [Example 22, 1-(2-methoxyphenyl)-3-(3-(1-(6-(methylamino)pyrimidin-4-yl)-1H-indol-6-yl)phenyl)urea]
[1]
  inhibition at 1 µM: > 50%
[2]
  GI50: < 10 µM
[3]
  GI50: < 10 µM

## COc1ccccc1NC(=O)Nc1cccc(-c2ccc3ccn(-c4cc(NC(=O)C5CC5)ncn4)c3c2)c1 [Example 26, N-(6-(6-(3-(3-(2-methoxyphenyl)ureido)phenyl)-1H-indol-1-yl)pyrimidin-4-yl)cyclopropanecarboxamide]
[1]
  inhibition at 1 µM: > 50%
[2]
  GI50: < 10 µM
[3]
  GI50: < 10 µM

## CCCS(=O)(=O)Nc1ccc(F)c(C(=O)c2c[nH]c3ncc(Cl)cc23)c1F [PLX4720]
[4]
  IC50: 500 nM

## CNC(=O)c1cc(Oc2ccc(NC(=O)Nc3ccc(Cl)c(C(F)(F)F)c3)cc2)ccn1 [sorafenib, Sorafenib]
[5]; 600 mg (twice a day)
  skin toxicity: grade 3 skin toxicity
[5]; clinical trial phase II, twice a day
  maximum allowed administration dose: 400 mg
